Measured values as given in article PMC9841523 (Journal of Medicinal Chemistry, 2022).

Assays:
Assay in all cases: KiNativ kinase panel
ABL, ARG = assay type: cell-based, human; settings: 1 μM, MCF-7 Cells
AurA, AurB, AurC = assay type: cell-based, human; settings: 1 μM; MCF-7 Cells; ATP Loop; GKFGNVYLAR
CK1g1 = molecular target: T1, CK1g1 (Homo sapiens, UniProt Q9HCP0); assay type: cell-based; settings: 1 μM, MCF-7 Cells, Lys2
T1 construct: endogenous in cells; host or cells: MCF7

IKKe, TBK1 = assay type: cell-based, human; settings: 1 μM; MCF-7 Cells; Lys2; DIKPGNIMR
MAP2K1, MAP2K2 = assay type: cell-based, human; settings: 1 μM, MCF-7 Cells
MAP4K3 = molecular target: T2, MAP4K3 (Homo sapiens, UniProt Q8IVH8); assay type: cell-based; settings: 1 μM, MCF-7 Cells
T2 construct: MCF7 cells were exposed to; endogenous in cells; host or cells: MCF7
T2 sequence (Q8IVH8 1-894): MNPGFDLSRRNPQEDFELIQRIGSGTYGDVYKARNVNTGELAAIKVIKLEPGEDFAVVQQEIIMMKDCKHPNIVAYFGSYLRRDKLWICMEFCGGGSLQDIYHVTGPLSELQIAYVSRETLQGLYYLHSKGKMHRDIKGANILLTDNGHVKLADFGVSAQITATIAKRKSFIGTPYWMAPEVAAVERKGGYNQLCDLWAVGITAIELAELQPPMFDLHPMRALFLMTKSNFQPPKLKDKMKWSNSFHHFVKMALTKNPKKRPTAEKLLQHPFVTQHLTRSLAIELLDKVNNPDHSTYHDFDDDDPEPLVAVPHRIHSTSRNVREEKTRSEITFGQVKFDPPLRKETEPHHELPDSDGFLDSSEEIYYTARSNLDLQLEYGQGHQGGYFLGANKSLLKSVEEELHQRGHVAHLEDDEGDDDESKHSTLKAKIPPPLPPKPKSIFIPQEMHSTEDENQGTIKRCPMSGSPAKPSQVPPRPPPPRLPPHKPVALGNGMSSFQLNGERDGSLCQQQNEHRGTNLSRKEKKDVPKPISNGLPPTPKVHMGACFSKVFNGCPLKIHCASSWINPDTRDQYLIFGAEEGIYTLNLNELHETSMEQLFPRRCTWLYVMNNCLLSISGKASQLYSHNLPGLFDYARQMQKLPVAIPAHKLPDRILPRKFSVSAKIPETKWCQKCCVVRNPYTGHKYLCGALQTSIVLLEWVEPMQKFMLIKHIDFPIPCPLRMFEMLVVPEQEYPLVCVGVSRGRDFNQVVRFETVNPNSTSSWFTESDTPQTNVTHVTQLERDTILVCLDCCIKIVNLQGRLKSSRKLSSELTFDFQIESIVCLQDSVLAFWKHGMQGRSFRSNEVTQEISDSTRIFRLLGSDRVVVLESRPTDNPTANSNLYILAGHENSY

MARK3, MARK4 = assay type: cell-based, human; settings: 1 μM; MCF-7 Cells; Lys1; EVAIKIIDK
MARK4 = molecular target: T3, MARK4 (Homo sapiens, UniProt Q96L34); assay type: cell-based; settings: 1 μM, MCF-7 Cells
T3 construct: purchased ActivX Biosciences (KiNativ)
T3 sequence (Q96L34 1-752): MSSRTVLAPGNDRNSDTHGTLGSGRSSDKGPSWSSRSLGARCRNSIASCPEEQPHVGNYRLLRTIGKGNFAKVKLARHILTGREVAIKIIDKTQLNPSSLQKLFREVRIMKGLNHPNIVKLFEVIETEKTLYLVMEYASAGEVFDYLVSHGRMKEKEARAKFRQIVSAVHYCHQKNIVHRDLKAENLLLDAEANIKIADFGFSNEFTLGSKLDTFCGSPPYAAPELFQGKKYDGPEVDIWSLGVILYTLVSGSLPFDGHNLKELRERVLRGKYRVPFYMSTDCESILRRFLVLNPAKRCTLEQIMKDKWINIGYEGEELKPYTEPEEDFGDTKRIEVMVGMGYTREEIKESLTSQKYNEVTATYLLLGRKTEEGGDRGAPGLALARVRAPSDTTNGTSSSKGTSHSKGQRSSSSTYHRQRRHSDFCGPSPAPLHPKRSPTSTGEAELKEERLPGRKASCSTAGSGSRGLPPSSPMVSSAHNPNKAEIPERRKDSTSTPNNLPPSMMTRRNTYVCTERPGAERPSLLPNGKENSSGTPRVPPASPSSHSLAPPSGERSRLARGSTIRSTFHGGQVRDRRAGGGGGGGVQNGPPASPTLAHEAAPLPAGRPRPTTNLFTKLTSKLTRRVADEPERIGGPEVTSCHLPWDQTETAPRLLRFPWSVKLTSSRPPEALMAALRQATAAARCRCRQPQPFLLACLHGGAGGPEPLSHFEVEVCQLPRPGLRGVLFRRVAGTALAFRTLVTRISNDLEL

MST1 = molecular target: T4, MST1 (Homo sapiens, UniProt Q13043); assay type: cell-based; settings: 1 μM; MCF-7 Cells; Lys1; ETGQIVAIKQVPVESDLQEIIK
T4 construct: purchased ActivX Biosciences (KiNativ)

MST1, MST2 = assay type: cell-based, human; settings: 1 μM, MCF-7 Cells, Lys2
MST3, MST4, YSK1 = assay type: cell-based, human; settings: 1 μM, MCF-7 Cells, Activation Loop
NEK6, NEK7 = assay type: cell-based, human; settings: 1 μM, MCF-7 Cells, Lys2
PCTAIRE1, PCTAIRE3 = assay type: cell-based, human; settings: 1 μM, MCF-7 Cells, Lys2
PIP5K3 = molecular target: T5, PIP5K3 (Homo sapiens, UniProt Q9Y2I7); assay type: cell-based; settings: 1 μM; MCF-7 Cells; ATP; GGKSGAAFYATEDDRFILK
T5 construct: purchased ActivX Biosciences (KiNativ)

PITSLRE = assay type: cell-based, human; settings: 1 μM; MCF-7 Cells; Lys2; DLKTSNLLLSHAGILK
PKCa, PKCg = assay type: cell-based, human; settings: 1 μM, MCF-7 Cells, Other
[1] = test system: ZC1/HGK, ZC2/TNIK, ZC3/MINK; assay type: cell-based, human; settings: 1 μM, MCF-7 Cells, Lys2

T5 sequence (Q9Y2I7 whole entry): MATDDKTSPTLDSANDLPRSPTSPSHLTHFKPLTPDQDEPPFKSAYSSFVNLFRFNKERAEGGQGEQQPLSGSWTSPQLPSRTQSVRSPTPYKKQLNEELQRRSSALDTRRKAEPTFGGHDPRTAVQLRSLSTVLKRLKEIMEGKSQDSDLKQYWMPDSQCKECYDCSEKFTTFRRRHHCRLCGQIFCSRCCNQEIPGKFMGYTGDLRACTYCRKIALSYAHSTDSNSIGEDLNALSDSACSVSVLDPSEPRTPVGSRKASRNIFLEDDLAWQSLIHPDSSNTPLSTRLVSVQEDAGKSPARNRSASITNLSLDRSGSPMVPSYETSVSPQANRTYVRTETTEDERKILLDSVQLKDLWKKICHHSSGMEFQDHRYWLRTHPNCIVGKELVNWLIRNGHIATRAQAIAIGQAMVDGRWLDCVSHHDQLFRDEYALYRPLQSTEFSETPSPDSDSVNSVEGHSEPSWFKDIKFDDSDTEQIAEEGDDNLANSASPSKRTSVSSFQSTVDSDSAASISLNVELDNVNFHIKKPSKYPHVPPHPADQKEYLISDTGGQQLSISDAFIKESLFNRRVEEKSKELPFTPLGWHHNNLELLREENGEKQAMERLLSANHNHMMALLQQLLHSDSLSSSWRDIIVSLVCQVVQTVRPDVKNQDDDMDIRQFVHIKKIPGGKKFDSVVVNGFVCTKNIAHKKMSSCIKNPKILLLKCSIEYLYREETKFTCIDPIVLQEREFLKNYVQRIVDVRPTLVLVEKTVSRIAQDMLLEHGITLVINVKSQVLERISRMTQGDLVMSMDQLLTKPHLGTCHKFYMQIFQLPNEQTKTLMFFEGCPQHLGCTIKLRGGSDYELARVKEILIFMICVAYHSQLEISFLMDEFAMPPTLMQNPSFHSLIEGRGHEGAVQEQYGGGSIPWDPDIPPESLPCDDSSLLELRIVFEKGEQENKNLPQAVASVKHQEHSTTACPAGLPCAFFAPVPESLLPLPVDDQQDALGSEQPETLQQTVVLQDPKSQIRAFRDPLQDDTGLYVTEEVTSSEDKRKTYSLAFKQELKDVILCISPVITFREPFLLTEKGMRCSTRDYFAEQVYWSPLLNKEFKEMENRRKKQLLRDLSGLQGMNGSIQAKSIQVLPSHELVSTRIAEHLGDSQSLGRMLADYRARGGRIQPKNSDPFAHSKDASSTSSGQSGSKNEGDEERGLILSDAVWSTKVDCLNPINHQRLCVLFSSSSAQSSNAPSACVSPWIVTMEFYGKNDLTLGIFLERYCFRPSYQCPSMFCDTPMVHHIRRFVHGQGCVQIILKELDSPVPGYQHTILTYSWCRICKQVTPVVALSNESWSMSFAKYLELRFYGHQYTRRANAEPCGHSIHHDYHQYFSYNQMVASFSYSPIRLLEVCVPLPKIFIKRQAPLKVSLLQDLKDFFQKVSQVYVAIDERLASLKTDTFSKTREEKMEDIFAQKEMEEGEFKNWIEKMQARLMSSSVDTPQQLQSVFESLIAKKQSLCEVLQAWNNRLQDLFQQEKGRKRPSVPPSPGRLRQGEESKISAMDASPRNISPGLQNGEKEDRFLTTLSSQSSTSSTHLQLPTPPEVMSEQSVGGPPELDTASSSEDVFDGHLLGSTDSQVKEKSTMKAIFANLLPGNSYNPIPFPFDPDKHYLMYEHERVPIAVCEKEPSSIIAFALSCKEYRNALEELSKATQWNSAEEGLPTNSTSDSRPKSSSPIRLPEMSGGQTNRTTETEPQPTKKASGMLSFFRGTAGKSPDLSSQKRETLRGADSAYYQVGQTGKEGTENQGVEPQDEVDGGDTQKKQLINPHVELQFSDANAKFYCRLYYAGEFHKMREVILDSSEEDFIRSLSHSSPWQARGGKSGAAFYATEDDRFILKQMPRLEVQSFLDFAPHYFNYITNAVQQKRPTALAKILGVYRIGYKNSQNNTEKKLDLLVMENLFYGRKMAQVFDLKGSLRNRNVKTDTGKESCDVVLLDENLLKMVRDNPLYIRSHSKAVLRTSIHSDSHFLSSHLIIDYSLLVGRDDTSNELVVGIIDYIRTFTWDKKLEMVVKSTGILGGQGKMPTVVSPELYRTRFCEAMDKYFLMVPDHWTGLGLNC
T1 sequence (Q9HCP0 whole entry): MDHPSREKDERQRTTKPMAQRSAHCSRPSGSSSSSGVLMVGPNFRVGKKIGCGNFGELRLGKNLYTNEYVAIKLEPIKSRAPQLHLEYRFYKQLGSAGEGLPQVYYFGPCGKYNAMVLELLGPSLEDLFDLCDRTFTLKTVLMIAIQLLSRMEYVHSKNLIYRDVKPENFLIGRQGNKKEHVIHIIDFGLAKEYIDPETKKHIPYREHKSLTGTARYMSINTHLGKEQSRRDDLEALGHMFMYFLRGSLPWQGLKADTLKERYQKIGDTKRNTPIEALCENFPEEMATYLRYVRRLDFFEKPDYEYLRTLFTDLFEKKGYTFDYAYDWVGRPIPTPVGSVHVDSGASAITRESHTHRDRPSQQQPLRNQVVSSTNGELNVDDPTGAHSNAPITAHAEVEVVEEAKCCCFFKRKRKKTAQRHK
T4 sequence (Q13043 whole entry): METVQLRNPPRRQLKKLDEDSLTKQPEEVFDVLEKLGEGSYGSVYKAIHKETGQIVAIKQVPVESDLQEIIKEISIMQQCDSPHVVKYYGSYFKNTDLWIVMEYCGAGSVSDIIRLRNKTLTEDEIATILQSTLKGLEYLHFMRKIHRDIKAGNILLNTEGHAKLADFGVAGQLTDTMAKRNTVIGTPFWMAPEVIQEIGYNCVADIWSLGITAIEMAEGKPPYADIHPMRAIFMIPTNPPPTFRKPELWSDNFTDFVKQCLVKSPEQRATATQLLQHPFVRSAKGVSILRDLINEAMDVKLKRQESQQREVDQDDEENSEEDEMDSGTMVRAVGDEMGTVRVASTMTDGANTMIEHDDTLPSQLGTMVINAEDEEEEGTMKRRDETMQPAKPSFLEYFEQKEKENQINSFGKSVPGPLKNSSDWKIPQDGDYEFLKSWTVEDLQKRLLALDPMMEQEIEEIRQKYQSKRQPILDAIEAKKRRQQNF

Compound: CO[C@H]1C[C@@H]2CC[C@@H](C)[C@@](O)(O2)C(=O)C(=O)N2CCCC[C@H]2C(=O)O[C@H]([C@H](C)C[C@@H]2CC[C@@H](OC(=O)NCCOCCOCCOCCOCCOCCOCCOCCOCCC(=O)NCCS(=O)(=O)c3ccc(C(=O)N4CCOc5ccc(-c6ccc(N)nc6)cc5C4)c(C)c3F)[C@H](OC)C2)C[C@@H](O)[C@H](C)/C=C(\C)[C@@H](O)[C@@H](OC)C(=O)[C@H](C)C[C@H](C)/C=C/C=C/C=C/1C [compound 40]
- KiNativ Kinase Panel Data (ABL, ARG; Activation Loop, LMTGDTYTAHAGAKFPIK): 16.3
- KiNativ Kinase Panel Data (ABL, ARG; Lys1, YSLTVAVKTLKEDTMEVEEFLK): -25.3
- KiNativ Kinase Panel Data (AurA, AurB, AurC): -3.6
- KiNativ Kinase Panel Data (CK1g1; DVKPENFLIGR): 1.3
- KiNativ Kinase Panel Data (IKKe, TBK1): -21.1
- KiNativ Kinase Panel Data (MAP2K1, MAP2K2; Lys1, KLIHLEIKPAIR): -34.9
- KiNativ Kinase Panel Data (MAP2K1, MAP2K2; Lys2, DVKPSNILVNSR): -22.1
- KiNativ Kinase Panel Data (MAP4K3; Lys1, NVNTGELAAIKVIK): -19.2
- KiNativ Kinase Panel Data (MAP4K3; Lys2, DIKGANILLTDNGHVK): 69.9
- KiNativ Kinase Panel Data (MARK3, MARK4): 13.2
- KiNativ Kinase Panel Data (MARK4; Lys1, EVAIKIIDKTQLNPSSLQK): 24.2
- KiNativ Kinase Panel Data (MARK4; Lys2, DLKAENLLLDAEANIK): 22.2
- KiNativ Kinase Panel Data (MST1): 18.2
- KiNativ Kinase Panel Data (MST1, MST2; DIKAGNILLNTEGHAK): -6.5
- KiNativ Kinase Panel Data (MST3, MST4, YSK1; LADFGVAGQLTDTQIKR): 20.4
- KiNativ Kinase Panel Data (NEK6, NEK7; DIKPANVFITATGVVK): -12.6
- KiNativ Kinase Panel Data (PCTAIRE1, PCTAIRE3; DLKPQNLLINER): -31.2
- KiNativ Kinase Panel Data (PIP5K3): 19.9
- KiNativ Kinase Panel Data (PITSLRE): 13.7
- KiNativ Kinase Panel Data (PKCa, PKCg; NLIPMDPNGLSDPYVKLK): 31.7
- KiNativ Kinase Panel Data ([1]; DIKGQNVLLTENAEVK): -13.4

Compound: CO[C@H]1C[C@@H]2CC[C@@H](C)[C@@](O)(O2)C(=O)C(=O)N2CCCC[C@H]2C(=O)O[C@H]([C@H](C)C[C@@H]2CC[C@@H](OC(=O)NCCOCCOCCOCCOCCOCCOCCOCCOCCC(=O)N3CCc4cc(Cn5nc(-c6ccc7oc(N)nc7c6)c6c(N)ncnc65)ccc4C3)[C@H](OC)C2)C[C@@H](O)[C@H](C)/C=C(\C)[C@@H](O)[C@@H](OC)C(=O)[C@H](C)C[C@H](C)/C=C/C=C/C=C/1C [compound 38]
- KiNativ Kinase Panel Data (ABL, ARG; Activation Loop, […]): -3.4
- KiNativ Kinase Panel Data (ABL, ARG; Lys1, […]): -1.3
- KiNativ Kinase Panel Data (AurA, AurB, AurC): 34.8
- KiNativ Kinase Panel Data (CK1g1; […]): 4.7
- KiNativ Kinase Panel Data (IKKe, TBK1): -33.9
- KiNativ Kinase Panel Data (MAP2K1, MAP2K2; Lys1, KLIHLEIKPAIR): 14.8
- KiNativ Kinase Panel Data (MAP2K1, MAP2K2; Lys2, […]): 7.6
- KiNativ Kinase Panel Data (MAP4K3; Lys1, NVNTGELAAIKVIK): 12.2
- KiNativ Kinase Panel Data (MAP4K3; Lys2, DIKGANILLTDNGHVK): -6.9
- KiNativ Kinase Panel Data (MARK3, MARK4): 7.2
- KiNativ Kinase Panel Data (MARK4; Lys1, […]): 7.0
- KiNativ Kinase Panel Data (MARK4; Lys2, DLKAENLLLDAEANIK): 20.6
- KiNativ Kinase Panel Data (MST1): 10.7
- KiNativ Kinase Panel Data (MST1, MST2; […]): 3.0
- KiNativ Kinase Panel Data (MST3, MST4, YSK1; […]): 12.4
- KiNativ Kinase Panel Data (NEK6, NEK7; […]): 11.1
- KiNativ Kinase Panel Data (PCTAIRE1, PCTAIRE3; […]): 13.9
- KiNativ Kinase Panel Data (PIP5K3): 0.8
- KiNativ Kinase Panel Data (PITSLRE): 17.8
- KiNativ Kinase Panel Data (PKCa, PKCg; […]): -20.9
- KiNativ Kinase Panel Data ([1]; […]): 8.5
